The values that follow come from US20250186456A1, “PYRIMIDINE-FUSED CYCLIC COMPOUND AND PREPARATION METHOD AND USE THEREOF” (Genfleet Therapeutics (Shanghai) Inc., priority 2021, published 2025).

Format in all cases: cell-based, human
Assay [1] has as its system AsPC-1 cells (KRAS G12D mutation). In words: Cell proliferation inhibition assay, 3D, CellTiter-Glo 3D, AsPC-1. To be noted: Homo sapiens, ASPC1, 120 h, AsPC-1 3D sphere model, 5 days incubation. An excerpt:
(§1) AsPC-1 was purchased from ATCC; catalog No: CRL-1682; AGS was purchased from ATCC; catalog No: CRL-1739; RPMI1640 was purchased from Gibco; catalog No: 11875-093 2235123; F12K was purchased from Gibco; catalog No: 21127-022; FBS was purchased from Gibco; catalog No: 10099-141C; trypsin (containing EDTA) was purchased from Gibco; catalog No: 25200-072; CellTiter Glo-3D was purchased from Progema; catalog No: G9683; 384-well sphere plates were purchased from Corning; catalog No: 3830; white opaque 384-well plates were purchased from Corning; catalog No: 3570; cell counters were purchased from CHEMOMETEC; model: NC-200; microplate reader was purchased from PerkinElmer; model: Envison;
(§2) AsPC-1 is an endogenous human pancreatic cancer cell containing KRAS^G12D mutation, cultured in RPMI-1640 medium containing 10% FBS; AGS is a human gastric cancer cell line containing KRAS^G12D, cultured in F-12K medium containing 10% FBS. Cells in the logarithmic growth phase were taken, digested with trypsin (containing EDTA), collected, and counted. 800 AsPC-1 cells/well or 400 AGS cells/well, respectively, were seeded in a 384-well sphere plate and cultured overnight at 5% CO2 to establish a 3D cell model. 1000X stock solutions of compounds at a 3.16-fold concentration gradient of were prepared using DMSO, diluted 100-fold into a 10X compound stock solution using the medium described above. The 10X compound stock solution was added to each cell on 2nd day after cell seeding at a final concentration of 1X and a DMSO content of 0.1%. DMSO was used as a control in the experiment, and the medium was used as blank. After the addition of the compounds, the cells were incubated for 5 days. 30 μl of CellTiter-Glo work solution was added to each well, mixed well, and incubated for 30 minutes. After standing at room temperature for 30 minutes, 40 μl of the mixed solution was transferred to an opaque 384-well plate with a white clear bottom. Luminescence chemiluminescence value was read by a microplate reader, and the cell proliferation inhibition rate (IR (%)=(RLU control-RLU compound)/(RLU control-RLU blank)×100%) was calculated. The gradiently diluted concentration of the compounds and corresponding cell proliferation inhibition rate were fitted using XLFit four-parameters method, and the IC50 value was calculated. […] The results of some exemplary compounds are shown in Table 2 (“−” represents untested).
In general terms: In ATP-based viability assays light output follows the ATP content of the culture.

In another assay the test system is AGS cells (KRAS G12D). In words: Cell proliferation inhibition assay, 3D, CellTiter-Glo 3D, AGS. The settings on record: Homo sapiens, 120 h, AGS 3D sphere model, 5 days incubation.
Text: as §1, §2

The test system of assay [2] is p-ERK in AGS cells (KRAS G12D mutation). In words: Cell p-ERK assay (HTRF, Advance ERK phospho-T202/Y204 kit). The settings on record: Homo sapiens; AGS cells, 3 hours incubation with compound, HTRF; read-out: AGS p-ERK IC50. How it is done:
AGS was purchased from ATCC; catalog No: CRL-1739; F12K was purchased from Gibco; catalog No: 21127-022; FBS was purchased from Gibco; catalog No: 10099-141C; trypsin (containing EDTA) was purchased from Gibco, catalog No: 25200-072; DMSO was purchased from VWRAMRESCO; catalog No: 0231-500 ML; 96-well cell culture plates were purchased from Corning; catalog No: 3599; white opaque 96-well plates were purchased from Cisbio; catalog No: 66PL96025; Advance ERK phospho-T202/Y204 kit was purchased from Cisbio; catalog No: 64AERPEH; cell counters were purchased from CHEMOMETEC; model No: NC-200; microplate reader was purchased from PerkinElmer; model No: Envison.
AGS is an endogenous human gastric adenocarcinoma cell line containing the KRAS^G12D mutation, cultured in F12K+10% FBS medium. On the first day of the experiment, cells in the logarithmic growth phase were taken, digested with trypsin (containing EDTA), collected, and counted. Approximately 20000 cells/well were seeded in a 96-well cell culture plate and cultured overnight in an incubator with 5% CO2. 1000X stock solutions of compounds at a 3.16-fold concentration gradient were prepared using DMSO, and diluted 200-fold into a 5X compound stock solution using the medium described above. The 5X compound stock solution was added to each cell culturing well the day after cell seeding at a final concentration of 1X and a DMSO content of 0.1%. DMSO was used as a control in the experiment. After the compound was added and the incubation was kept for 3 hours, the medium in the culture wells was removed. 50 μl of Cell lysis solution (from Advance ERK phospho-T202/Y204 kit, the same below) was added to each well, mixed well, and incubated for 30 minutes and then 16 μl of the mixed solution was transferred to a white opaque 96-well plate, another 16 μl of cell lysis solution was added to a well as a blank well. After transferring, 4 μl of p-ERK HTRF antibody mixture (from Advance ERK phospho-T202/Y204 kit) was added to each well. After incubation for 4 hours, HTRF fluorescence value (RLU) was read by a microplate reader, and p-ERK level inhibition rate (IR (%)=(RLU control-RLU compound)/(RLU control-RLU blank)×100%) of the compounds was calculated. The concentration of the compounds and corresponding cell p-ERK level inhibition rate were fitted using Prism 8 four-parameters method, and the IC50 value was calculated.

The IC50 is the concentration that inhibits the measured activity by half.

With `C#Cc1c(F)ccc2cccc(-c3nc4c5c(nc(OC[C@]67CCCN6CC(=C)C7)nc5c3F)N3C[C@H]5CC[C@H](N5)[C@H]3[C@H](C)O4)c12` (single isomer, unassigned) [Example Z636], the IC50 in assay [1] stood at 30.6 nM; with AGS cells (KRAS G12D) it was 10.9 nM; in assay [2], 10.5 nM.
Consider `C#Cc1c(F)ccc2cccc(-c3nc4c5c(nc(OCC67CC(O)CN6CCC7=C)nc5c3F)N3C[C@H]5CC[C@H](N5)[C@H]3[C@H](C)O4)c12` (stereo partly drawn) [Example Z674, 7a-((((5S,5aS,6S,9R)-2-(8-ethynyl-7-fluoronaphthalen-1-yl)-1-fluoro-5-methyl-5a,6,7,8,9,10-hexahydro-5H-4-oxa-3,10a, 11, 13, 14-pentaaza-6,9-methanonaphtho[1,8-ab]heptalen-12-yl)oxy)methyl)-7-methylenehexahydro-1H-pyrrolizin-2-ol], for which the IC50 stood at 475 nM in assay [1], 108 nM with AGS cells (KRAS G12D) and 10.7 nM in assay [2].
Consider `C#Cc1cccc2cc(N)cc(-c3nc4c5c(nc(OCC6(CN7CC(F)(F)C7)CC6)nc5c3F)N3C[C@H]5CC[C@H](N5)[C@H]3[C@H](C)O4)c12` [Example Z713, 4-((5S,5aS,6S,9R)-12-((1-((3,3-difluoroazetidin-1-yl)methyl)cyclopropyl)methoxy)-1-fluoro-5-methyl-5a,6,7,8,9,10-hexahydro-5H-4-oxa-3,10a, 11, 13,14-pentaaza-6,9-methanonaphtho[1,8-ab]heptalen-2-yl)-5-ethynylnaphthalen-2-amine], for which the IC50 came to 55.6 nM in assay [1], 73.5 nM in the assay with AGS cells (KRAS G12D) and 22 nM in assay [2].
On to `C#Cc1c(F)ccc2cccc(-c3nc4c5c(nc(OCC67CC8CC8N6CCC7=C)nc5c3F)N3C[C@H]5CC[C@H](N5)[C@H]3[C@H](C)O4)c12` (stereo partly drawn) [Example Z635, (5S,5aS,6S,9R)-2-(8-ethynyl-7-fluoronaphthalen-1-yl)-1-fluoro-5-methyl-12-((5-methylenehexahydrocyclopropa[b]pyrrolizin-5a (3H)-yl)methoxy)-5a,6,7,8,9,10-hexahydro-5H-4-oxa-3,10a, 11,13,14-pentaaza-6,9-methanonaphtho[1,8-ab]heptalene], for which the IC50 in assay [1] was found to be 218 nM; in the assay with AGS cells (KRAS G12D), 224 nM; in assay [2] it was 50 nM.
The matching figures for `C#Cc1c(F)ccc2cc(O)cc(-c3nc4c5c(nc(OCC67CC(=C)CN6CC(=C)C7)nc5c3F)N3C[C@H]5CC[C@H](N5)[C@H]3CO4)c12` [Example Z380, 4-((5aS,6S,9R)-12-((2,6-Dimethylenetetrahydro-1H-Pyrrolizin-7a (5H)-Yl)Methoxy)-1-Fluoro-5a,6,7,8,9,10-Hexahydro-5H-4-Oxa-3,10a,11,13,14-Pentaaza-6,9-Methanonaphtho[1,8-Ab]Heptalen-2-Yl)-5-Ethynyl-6-Fluoronaphthalen-2-Ol]: 26.2 nM, 2.68 nM and 0.78 nM.
The like results for `C#Cc1c(F)ccc2cccc(-c3nc4c5c(nc(OCC67CC(=C)CN6C[C@H](F)C7)nc5c3F)N3C[C@H]5CC[C@H](N5)[C@H]3[C@H](C)O4)c12` (stereo partly drawn) [Example Z633, (5S,5aS,6S,9R)-2-(8-ethynyl-7-fluoronaphthalen-1-yl)-1-fluoro-12-(((2R)-2-fluoro-6-methylenetetrahydro-1H-pyrrolizin-7a (5H)-yl)methoxy)-5-methyl-5a,6,7,8,9,10-hexahydro-5H-4-oxa-3,10a,11,13,14-pentaaza-6,9-methanonaphtho[1,8-ab]heptalene] were, in that order, 56.7 nM, 59 nM and 14.5 nM.
Take `C#Cc1c(F)ccc2cccc(-c3nc4c5c(nc(OCC67CCCN6CC(=C)C7)nc5c3F)N3C[C@H]5CC[C@H](N5)[C@H]3[C@H](C)O4)c12` (stereo partly drawn) [Example Z590, (5S,5aS,6S,9R)-2-(8-ethynyl-7-fluoronaphthalen-1-yl)-1-fluoro-5-methyl-12-((2-methylenetetrahydro-1H-pyrrolizin-7a (5H)-yl)methoxy)-5a,6,7,8,9,10-hexahydro-5H-4-oxa-3,10a,11,13,14-pentaaza-6,9-methanonaphtho[1,8-ab]heptalene]: the IC50 came out at 114 nM in assay [1], 17.3 nM in the assay with AGS cells (KRAS G12D) and 7.11 nM in assay [2].
`C#Cc1cccc2cccc(-c3nc4c5c(nc(OCC67CCCN6CC(=C)C7)nc5c3F)N3C[C@H]5CC[C@H](N5)[C@H]3[C@H](CC)O4)c12` (stereo partly drawn) [Example Z595, (5S,5aS,6S,9R)-5-ethyl-2-(8-ethynylnaphthalen-1-yl)-1-fluoro-12-((2-methylenetetrahydro-1H-pyrrolizin-7a (5H)-yl)methoxy)-5a,6,7,8,9,10-hexahydro-5H-4-oxa-3,10a,11,13,14-pentaaza-6,9-methanonaphtho[1,8-ab]heptalene]: the values for the half-inhibitory concentration (IC50) (in assay [1]; in the assay with AGS cells (KRAS G12D); in assay [2]) were 157 nM, 99 nM and 119 nM, respectively.
On to `C#Cc1cccc2cc(N)nc(-c3nc4c5c(nc(OCC67CC(=C)CN6C[C@H](F)C7)nc5c3F)N3C[C@H]5CC[C@H](N5)[C@H]3[C@H](C)O4)c12` (stereo partly drawn) [Example Z685, 8-Ethynyl-1-((5S,5aS,68,9R)-1-Fluoro-12-(((2R)-2-Fluoro-6-Methylenetetrahydro-1H-Pyrrolizin-7a (5H)-Yl)Methoxy)-5-Methyl-5a,6,7,8,9,10-Hexahydro-5H-4-Oxa-3,10a,11,13,14-Pentaaza-6,9-Methanonaphtho[1,8-Ab]Heptalen-2-Yl) Isoquinolin-3-Amine], for which the IC50 in assay [1] worked out at 258 nM; in the assay on AGS cells (KRAS G12D) it was 145 nM; in assay [2], 30.3 nM.
For the molecule `C#Cc1c(F)ccc2cccc(-c3nc4c5c(nc(OCC67C[C@@H](OC)CN6CCC7=C)nc5c3F)N3C[C@H]5CC[C@H](N5)[C@H]3[C@H](C)O4)c12` (stereo partly drawn) [Example Z688, (5S,5aS,6S,9R)-2-(8-Ethynyl-7-Fluoronaphthalen-1-Yl)-1-Fluoro-12-(((6R)-6-Methoxy-1-Methylenetetrahydro-1H-Pyrrolizin-7a (5H)-Yl)Methoxy)-5-Methyl-5a,6,7,8,9,10-Hexahydro-5H-4-Oxa-3,10a,11,13,14-Pentaaza-6,9-Methanonaphtho[1,8-Ab]Heptalene], the IC50 came out at 39.2 nM in assay [1], 20 nM in the assay on AGS cells (KRAS G12D) and 8.77 nM in assay [2].
As for `C=C1CN2C[C@H](F)CC2(COc2nc3c4c(nc(-c5cccc(Cl)c5C(F)(F)F)c(F)c4n2)O[C@@H](C)[C@@H]2[C@@H]4CC[C@H](CN32)N4)C1` (stereo partly drawn) [Example Z682, (5S,5aS,6S,9R)-2-(3-chloro-2-(trifluoromethyl)phenyl)-1-fluoro-12-(((2R)-2-fluoro-6-methylenetetrahydro-1H-pyrrolizin-7a (5H)-yl)methoxy)-5-methyl-5a,6,7,8,9,10-hexahydro-5H-4-oxa-3,10a, 11,13,14-pentaaza-6,9-methanonaphtho[1,8-ab]heptalene], the IC50 was 237 nM in assay [1], 146 nM with AGS cells (KRAS G12D) and 82 nM in assay [2].
